According to PMC9512720, “Insight into the mechanism of molecular recognition between human Integrin-Linked Kinase and Cpd22 and its implication at atomic level” (Journal of Computer-Aided Molecular Design, 2022):

Target: T1, Integrin-linked kinase (ILK) (Homo sapiens, UniProt Q13418)
T1 sequence (Q13418 1-452): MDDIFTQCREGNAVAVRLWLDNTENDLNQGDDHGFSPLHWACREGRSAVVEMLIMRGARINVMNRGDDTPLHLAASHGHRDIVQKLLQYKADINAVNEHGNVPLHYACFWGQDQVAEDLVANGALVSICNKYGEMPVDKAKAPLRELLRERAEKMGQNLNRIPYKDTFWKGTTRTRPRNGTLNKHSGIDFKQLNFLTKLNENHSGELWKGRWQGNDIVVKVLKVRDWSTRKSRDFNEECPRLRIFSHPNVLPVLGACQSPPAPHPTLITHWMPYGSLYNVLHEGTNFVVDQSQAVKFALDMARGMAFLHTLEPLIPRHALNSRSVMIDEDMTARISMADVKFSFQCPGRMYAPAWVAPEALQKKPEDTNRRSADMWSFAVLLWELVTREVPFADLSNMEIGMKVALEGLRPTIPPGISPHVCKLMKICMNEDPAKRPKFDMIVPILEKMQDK
Assay: SPR (Biacore X-100, ILK immobilized on CM5 chip by amine coupling, Cpd22 […])
Assay type: binding

Kd: ~592 µM
SMILES: CNC(=O)CCc1cc(-c2ccc(-c3ccc(C(F)(F)F)cc3)cc2)n(-c2ccc(N3CCNCC3)cc2)n1 [Cpd22]
